Assay results from ChEMBL document CHEMBL5131385, “Novel piperazine based benzamide derivatives as potential anti-glioblastoma agents inhibiting cell proliferation and cell cycle progression” (Eur J Med Chem, 2022).
Calls of active or inactive are those of the source. No cut-off for these calls is given here.

How the values were obtained:
[1] = system: U-251; experiment: Induction of apoptosis in human U-251 cells assessed as early apoptotic cells at 6 uM incubated for 72 hrs by Annexin V-FITC/PI staining based flow cytometry method (Rvb =1.96 %); format: functional
[2] = Permeability of compound across blood brain barrier in Sprague-Dawley rat at 100 mg/kg, ip and measured after 240 mins by LC-MS analysis; format: ADME, organism-based; details: read-out: BBR
[3] = system: U-87MG ATCC; experiment: Antiproliferative activity against human U-87 MG cells assessed as inhibition of cell proliferation and measured upto 72 hrs by CCK8 assay; format: functional, cell-based; details: TDE = time-dependent effect
[4] = Acute toxicity in Kunming mouse assessed as pathological changes in liver at 600 mg/kg, ip measured after 24 hrs by H and E staining analysis; format: organism-based; details: in vivo
[5] = system: U-87MG ATCC; experiment: Antiproliferative activity against human U-87 MG cells assessed as reduction in colony number at 0.125 to 0.5 uM for 2 to 3 weeks by crystal violet staining based plate clone formation assay; format: functional, cell-based; details: dose 0.125-0.5 µM, time 2-3 weeks, DDE = dose-dependent effect
[6] = system: U-251; experiment: Antimigratory activity in human U-251 cells assessed as inhibition of cell migration by measuring wound closure at 0.25 to 1.0 uM and measured after 24 hrs by wound healing assay; format: functional, cell-based; details: dose 0.25-1 µM, DDE = dose-dependent effect
[7] = system: U-251; experiment: Induction of apoptosis in human U-251 cells assessed as late apoptotic cells at 6 uM incubated for 72 hrs by Annexin V-FITC/PI staining based flow cytometry method (Rvb =1.31 %); format: functional
[8] = Induction of apoptosis in human U-87 MG cells assessed as late apoptotic cells at 0.30 uM incubated for 72 hrs by Annexin V-FITC/PI staining based flow cytometry method (reference value: 0.42 %); format: functional, U-87MG ATCC; details: dose 0.3 µM
[9] = AUC (0 to t) in Sprague-Dawley rat plasma at 100 mg/kg, ip and measured upto 240 mins by LC-MS analysis; format: ADME, organism-based; set-up: dose 100 mg/kg, time < 240 min, route ip
[10] = Acute toxicity in Kunming mouse assessed as survival at 600 mg/kg, ip measured after 14 days; format: organism-based; details: in vivo, 336 h, time 14 day
[11] = Induction of apoptosis in human U-87 MG cells assessed as necrotic cells at 0.075 uM incubated for 72 hrs by Annexin V-FITC/PI staining based flow cytometry method (reference value: 0.21 %); format: functional, U-87MG ATCC
[12] = system: U-87MG ATCC; experiment: Upregulation of p16 INK4a gene expression in human U-87 MG cells at 0.075 to 1.2 uM measured after 72 hrs by western blot analysis; format: functional, cell-based; details: dose 0.075-1.2 µM
[13] = system: U-251; experiment: Induction of apoptosis in human U-251 cells assessed as morphological changes at 0.375 to 6 uM measured after 72 hrs by Giemsa staining based microscopic analysis; format: functional, cell-based; details: dose 0.375-6 µM
[14] = system: U-87MG ATCC; experiment: Induction of apoptosis in human U-87 MG cells assessed as decrease in cell size at 0.075 to 1.20 uM measured after 72 hrs by Giemsa staining based microscopic analysis; format: functional; details: dose 0.075-1.2 µM
[15] = system: U-251; experiment: Antiproliferative activity against human U-251 cells assessed as inhibition of cell proliferation measured after 72 hrs by CCK8 assay; format: functional, cell-based; details: U-251, 72 h
[16] = AUC (0 to infinity) in Sprague-Dawley rat plasma at 100 mg/kg, ip and measured upto 240 mins by LC-MS analysis; format: ADME, organism-based; set-up: time < 240 min, dose 100 mg/kg, route ip
[17] = system: U-87MG ATCC; experiment: Downregulation of pRb gene expression in human U-87 MG cells at 0.075 to 1.2 uM measured after 72 hrs by western blot analysis; format: functional, cell-based; details: dose 0.075-1.2 µM
[18] = system: U-251; experiment: Induction of apoptosis in human U-251 cells assessed as necrotic cells at 1.50 uM incubated for 72 hrs by Annexin V-FITC/PI staining based flow cytometry method (Rvb =0.51 %); format: functional; details: dose 1.5 µM
[19] = Induction of apoptosis in human U-87 MG cells assessed as viable cells at 0.075 uM incubated for 72 hrs by Annexin V-FITC/PI staining based flow cytometry method (reference value: 96.84 %); format: functional, U-87MG ATCC; details: read-out: Activity
[20] = system: U-251; experiment: Upregulation of p16 INK4a gene expression in human U-251 cells at 0.075 to 1.2 uM measured after 72 hrs by western blot analysis; format: functional, cell-based; details: dose 0.075-1.2 µM

With `COCCN1CCN(c2ccc(F)cc2C(=O)Nc2ccc(CNC(=O)OCc3cccnc3)cc2)CC1` the Activity [1] was 4.81%, the Kp at 4 h [2] was 1.07 and the Activity [3] was “Tde”. The Activity [4] was “Non-Toxic”, the Activity [5] was “Dde” and the Activity [6] was “Dde”. For the same compound, the Activity [7] was 5.75%, the Activity [8] was 0.95% and the AUC(0-t) at 4 h [9] was 90400 ng·h/mL. For the same compound, the Activity [10] was “Non-Toxic”, the Activity [11] was 0.33% and the Activity [12] was “Active”. The Activity [13] was “Active”, the Activity [14] was “Active” and the IC50 [15] was 1280 nM. The AUC(0-inf) [16] was 95500 ng·h/mL, the Activity [17] was “Active” and the Activity [18] was 0.94%. For the same compound, the viability at 0.075 µM [19] was 96.5% and the Activity [20] was “Active”.
